From patent US9050341B2, “Methods of treating drug resistant and other tumors by administering 6,7-dialkoxy quinazoline derivatives” (NATCO PHARMA LIMITED, priority 2009, dated 2015)

Tests used:
Assay in all cases: KinomeScan kinase profiling
Assay type in all cases: binding
[1] = biological target: T1, NEK7 (Homo sapiens, UniProt Q8TDX7)
T1 construct: host or cells: T7 phage in E. coli host derived from BL21
Outline: (§1)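 Kinases were expressed as T7 phage fusions in a BL21-derived E. coli host and the cleared lysates were used. Ligand beads were blocked with biotin and buffer (1% BSA, 0.05% Tween 20, 1 mM DTT). Compounds came from 40× DMSO stocks, and phage in the eluates was titred by qPCR.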

[2] = biological target: T2, ERK4 (Homo sapiens, UniProt P31152)
T2 construct: host or cells: E. coli host derived from BL21, T7 phage lysate
Outline: as §1

[3] = biological target: T3, TESK1 (Homo sapiens, UniProt Q15569)
T3 construct: host or cells: E. coli host derived from the BL21 strain, T7 phage lysate
Outline: as §1

[4] = biological target: T4, MET (Homo sapiens, UniProt P08581)
T4 construct: host or cells: E. coli derived from BL21, infected with T7 phage
T4 sequence (P08581 25-1390): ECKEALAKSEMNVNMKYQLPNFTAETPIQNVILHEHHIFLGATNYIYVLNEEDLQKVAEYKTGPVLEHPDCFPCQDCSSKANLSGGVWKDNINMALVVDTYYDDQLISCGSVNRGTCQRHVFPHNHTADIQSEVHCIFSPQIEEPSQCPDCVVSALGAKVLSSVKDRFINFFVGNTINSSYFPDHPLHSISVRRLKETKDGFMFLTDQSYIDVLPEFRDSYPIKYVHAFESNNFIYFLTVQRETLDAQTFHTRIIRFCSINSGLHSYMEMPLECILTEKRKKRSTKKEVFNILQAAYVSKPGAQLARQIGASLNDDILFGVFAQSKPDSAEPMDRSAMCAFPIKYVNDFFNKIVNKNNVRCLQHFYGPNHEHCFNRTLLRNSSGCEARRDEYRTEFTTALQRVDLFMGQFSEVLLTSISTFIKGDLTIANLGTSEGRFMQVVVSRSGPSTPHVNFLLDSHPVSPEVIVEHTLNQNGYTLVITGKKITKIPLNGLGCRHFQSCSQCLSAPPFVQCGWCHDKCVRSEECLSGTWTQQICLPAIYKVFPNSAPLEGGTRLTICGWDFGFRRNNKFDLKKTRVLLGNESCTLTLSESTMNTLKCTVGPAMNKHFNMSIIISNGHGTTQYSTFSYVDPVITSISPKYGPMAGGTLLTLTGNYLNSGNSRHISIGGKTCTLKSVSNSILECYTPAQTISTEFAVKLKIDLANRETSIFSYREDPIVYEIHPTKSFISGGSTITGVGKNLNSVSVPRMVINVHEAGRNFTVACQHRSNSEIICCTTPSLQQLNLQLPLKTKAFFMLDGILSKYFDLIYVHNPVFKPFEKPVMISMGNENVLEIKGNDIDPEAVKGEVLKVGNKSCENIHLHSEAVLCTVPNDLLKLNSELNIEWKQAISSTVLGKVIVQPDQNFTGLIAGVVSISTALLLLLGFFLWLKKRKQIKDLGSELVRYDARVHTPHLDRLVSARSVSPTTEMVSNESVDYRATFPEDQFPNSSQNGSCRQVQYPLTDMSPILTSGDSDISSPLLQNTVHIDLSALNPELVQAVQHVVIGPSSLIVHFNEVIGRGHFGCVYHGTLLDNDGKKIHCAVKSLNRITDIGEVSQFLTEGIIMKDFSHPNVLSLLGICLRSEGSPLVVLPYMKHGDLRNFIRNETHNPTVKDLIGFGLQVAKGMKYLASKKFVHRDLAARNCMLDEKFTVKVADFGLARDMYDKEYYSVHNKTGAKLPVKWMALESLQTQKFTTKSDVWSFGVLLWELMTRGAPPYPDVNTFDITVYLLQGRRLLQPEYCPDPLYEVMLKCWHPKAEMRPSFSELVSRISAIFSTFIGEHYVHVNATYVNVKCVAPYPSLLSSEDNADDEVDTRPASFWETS
Outline: as §1

[5] = biological target: T5, MST1 (Homo sapiens, UniProt Q13043)
T5 construct: host or cells: T7 phage in E. coli host derived from BL21
Outline: as §1

[6] = biological target: T6, CSNK1E (Homo sapiens, UniProt P49674)
T6 construct: host or cells: T7 phage in E. coli (BL21-derived)
Outline: as §1

[7] = biological target: T7, FLT3 (D835Y) (Homo sapiens, UniProt P36888, D835Y)
T7 construct: host or cells: E. coli host derived from BL21, infected with T7 phage
Outline: as §1

[8] = biological target: T8, RIOK1 (Homo sapiens, UniProt Q9BRS2)
T8 construct: host or cells: E. coli host derived from BL21, T7 phage lysate
Outline: as §1

[9] = biological target: T9, MERTK (Homo sapiens, UniProt Q12866)
T9 construct: host or cells: E. coli derived from BL21, infected with T7 phage
Outline: as §1

[10] = biological target: T10, p38-delta (Homo sapiens, UniProt O15264)
T10 construct: host or cells: E. coli host derived from the BL21 strain, infected with T7 phage
T10 sequence (O15264 whole entry): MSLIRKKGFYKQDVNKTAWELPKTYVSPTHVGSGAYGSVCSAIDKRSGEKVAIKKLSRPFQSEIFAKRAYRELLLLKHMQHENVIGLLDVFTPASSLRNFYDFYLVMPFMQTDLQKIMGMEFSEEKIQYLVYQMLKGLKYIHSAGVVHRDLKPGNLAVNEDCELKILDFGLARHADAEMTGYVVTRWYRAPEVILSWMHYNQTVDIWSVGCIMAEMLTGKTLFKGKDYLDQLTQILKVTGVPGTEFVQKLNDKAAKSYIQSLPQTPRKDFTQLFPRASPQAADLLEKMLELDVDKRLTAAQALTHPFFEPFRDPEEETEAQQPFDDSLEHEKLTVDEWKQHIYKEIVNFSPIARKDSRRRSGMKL
Outline: as §1

[11] = biological target: T11, NDR2 (Homo sapiens, UniProt Q9Y2H1)
T11 construct: host or cells: T7 phage in E. coli host derived from BL21
T11 sequence (Q9Y2H1 whole entry): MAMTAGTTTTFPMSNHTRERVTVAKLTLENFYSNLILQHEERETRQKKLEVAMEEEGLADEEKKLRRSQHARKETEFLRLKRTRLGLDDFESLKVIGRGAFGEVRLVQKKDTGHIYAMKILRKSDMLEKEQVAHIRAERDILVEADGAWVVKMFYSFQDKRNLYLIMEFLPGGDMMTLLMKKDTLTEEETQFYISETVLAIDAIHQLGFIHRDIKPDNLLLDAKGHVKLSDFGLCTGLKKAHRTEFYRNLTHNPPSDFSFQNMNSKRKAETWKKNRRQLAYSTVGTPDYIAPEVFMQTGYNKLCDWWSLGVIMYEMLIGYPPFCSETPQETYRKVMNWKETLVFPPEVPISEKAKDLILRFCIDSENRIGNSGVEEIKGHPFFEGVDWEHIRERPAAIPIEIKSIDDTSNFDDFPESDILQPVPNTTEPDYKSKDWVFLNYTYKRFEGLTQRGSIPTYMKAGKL
Outline: as §1

[12] = biological target: T12, ABL1 (E255K) (Homo sapiens, UniProt P00519, E255K)
T12 construct: host or cells: E. coli host derived from BL21 (T7 phage lysate)
Outline: as §1

[13] = biological target: T13, BMPR1B (Homo sapiens, UniProt O00238)
T13 construct: purchased Ambit Biosciences Corp (KinomeScan); host or cells: E. coli host derived from the BL21 strain, T7 phage
T13 sequence (O00238 14-502): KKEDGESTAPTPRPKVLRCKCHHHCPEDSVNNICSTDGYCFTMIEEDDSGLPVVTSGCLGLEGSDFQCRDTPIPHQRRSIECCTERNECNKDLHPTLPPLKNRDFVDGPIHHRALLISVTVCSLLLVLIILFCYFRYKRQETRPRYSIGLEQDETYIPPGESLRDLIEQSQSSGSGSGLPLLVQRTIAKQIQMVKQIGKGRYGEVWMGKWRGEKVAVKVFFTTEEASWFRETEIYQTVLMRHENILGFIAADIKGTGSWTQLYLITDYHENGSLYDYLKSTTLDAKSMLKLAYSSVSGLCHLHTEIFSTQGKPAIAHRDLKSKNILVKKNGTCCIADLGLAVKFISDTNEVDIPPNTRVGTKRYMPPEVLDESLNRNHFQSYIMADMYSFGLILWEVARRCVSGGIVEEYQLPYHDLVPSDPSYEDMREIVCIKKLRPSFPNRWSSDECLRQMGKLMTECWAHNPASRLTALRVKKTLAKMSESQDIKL
Outline: as §1

[14] = biological target: T14, MEK2 (Homo sapiens, UniProt P36507)
T14 construct: host or cells: E. coli derived from BL21, infected with T7 phage
Outline: as §1

[15] = biological target: T15, MLK1 (Homo sapiens, UniProt P80192)
T15 construct: host or cells: T7 phage in E. coli host derived from BL21
Outline: as §1

[16] = biological target: T16, TXK (Homo sapiens, UniProt P42681)
T16 construct: purchased Ambit Biosciences Corp (KinomeScan); host or cells: E. coli host derived from the BL21 strain (T7 phage lysate)
Outline: as §1

[17] = biological target: T17, ADCK4 (Homo sapiens, UniProt Q96D53)
T17 construct: host or cells: E. coli host derived from BL21 (T7 phage lysate)
T17 sequence (Q96D53 whole entry): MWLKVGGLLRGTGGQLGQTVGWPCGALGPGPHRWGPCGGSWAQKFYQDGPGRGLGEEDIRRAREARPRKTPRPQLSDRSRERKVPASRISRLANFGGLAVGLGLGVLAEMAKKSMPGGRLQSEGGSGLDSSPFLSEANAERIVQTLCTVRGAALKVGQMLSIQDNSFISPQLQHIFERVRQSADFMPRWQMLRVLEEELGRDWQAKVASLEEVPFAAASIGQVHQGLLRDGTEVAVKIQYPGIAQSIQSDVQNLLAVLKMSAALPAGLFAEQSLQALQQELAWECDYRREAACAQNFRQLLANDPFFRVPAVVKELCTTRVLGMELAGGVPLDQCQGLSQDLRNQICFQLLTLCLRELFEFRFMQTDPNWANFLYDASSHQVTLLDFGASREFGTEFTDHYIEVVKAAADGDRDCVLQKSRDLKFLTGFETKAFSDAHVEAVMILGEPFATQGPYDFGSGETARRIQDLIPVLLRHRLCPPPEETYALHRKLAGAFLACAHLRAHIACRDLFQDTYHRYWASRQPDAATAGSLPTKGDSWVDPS
Outline: as §1

[18] = biological target: T18, PLK1 (Homo sapiens, UniProt P53350)
T18 construct: purchased Ambit Biosciences Corp (KinomeScan); host or cells: E. coli host derived from BL21, infected with T7 phage
T18 sequence (P53350 whole entry): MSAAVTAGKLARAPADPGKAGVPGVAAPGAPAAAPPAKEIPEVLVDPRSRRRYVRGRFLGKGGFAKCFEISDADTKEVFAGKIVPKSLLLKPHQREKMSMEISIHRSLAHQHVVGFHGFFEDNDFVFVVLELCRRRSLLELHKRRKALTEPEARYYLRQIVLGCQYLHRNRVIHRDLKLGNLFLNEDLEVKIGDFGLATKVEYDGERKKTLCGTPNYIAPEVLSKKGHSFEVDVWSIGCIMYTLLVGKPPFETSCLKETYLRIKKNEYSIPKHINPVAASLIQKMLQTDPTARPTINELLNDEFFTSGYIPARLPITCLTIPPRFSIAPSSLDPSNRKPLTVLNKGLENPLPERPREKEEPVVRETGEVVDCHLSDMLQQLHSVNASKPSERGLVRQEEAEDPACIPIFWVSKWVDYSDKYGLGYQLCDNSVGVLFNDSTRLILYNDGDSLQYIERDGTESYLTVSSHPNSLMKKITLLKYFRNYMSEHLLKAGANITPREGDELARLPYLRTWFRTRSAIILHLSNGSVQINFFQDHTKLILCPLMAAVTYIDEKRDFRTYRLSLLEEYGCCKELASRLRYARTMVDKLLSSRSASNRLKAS
Outline: as §1

[19] = biological target: T19, RET (Homo sapiens, UniProt P07949)
T19 construct: host or cells: E. coli host derived from BL21, T7 phage lysate
Outline: as §1

[20] = biological target: T20, AURKC (Homo sapiens, UniProt Q9UQB9)
T20 construct: purchased Ambit Biosciences Corp (KinomeScan); host or cells: E. coli host derived from the BL21 strain, T7 phage
T20 sequence (Q9UQB9 whole entry): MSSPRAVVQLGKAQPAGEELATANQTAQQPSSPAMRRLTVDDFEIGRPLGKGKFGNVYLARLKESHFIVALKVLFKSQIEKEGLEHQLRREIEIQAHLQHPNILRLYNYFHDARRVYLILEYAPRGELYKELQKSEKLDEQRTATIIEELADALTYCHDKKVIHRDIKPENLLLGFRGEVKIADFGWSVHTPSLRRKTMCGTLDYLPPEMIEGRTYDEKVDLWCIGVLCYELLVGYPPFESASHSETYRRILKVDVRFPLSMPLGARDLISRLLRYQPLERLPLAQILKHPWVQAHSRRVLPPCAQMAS
Outline: as §1

[21] = biological target: T21, HCK (Homo sapiens, UniProt P08631)
T21 construct: host or cells: E. coli host derived from BL21, infected with T7 phage
Outline: as §1

[22] = biological target: T22, IKK-alpha (Homo sapiens, UniProt O15111)
T22 construct: host or cells: T7 phage in E. coli host derived from BL21
Outline: as §1

[23] = biological target: T23, YANK3 (Homo sapiens, UniProt Q86UX6)
T23 construct: purchased Ambit Biosciences Corp (KinomeScan); host or cells: E. coli host derived from the BL21 strain (T7 phage lysate)
T23 sequence (Q86UX6 whole entry): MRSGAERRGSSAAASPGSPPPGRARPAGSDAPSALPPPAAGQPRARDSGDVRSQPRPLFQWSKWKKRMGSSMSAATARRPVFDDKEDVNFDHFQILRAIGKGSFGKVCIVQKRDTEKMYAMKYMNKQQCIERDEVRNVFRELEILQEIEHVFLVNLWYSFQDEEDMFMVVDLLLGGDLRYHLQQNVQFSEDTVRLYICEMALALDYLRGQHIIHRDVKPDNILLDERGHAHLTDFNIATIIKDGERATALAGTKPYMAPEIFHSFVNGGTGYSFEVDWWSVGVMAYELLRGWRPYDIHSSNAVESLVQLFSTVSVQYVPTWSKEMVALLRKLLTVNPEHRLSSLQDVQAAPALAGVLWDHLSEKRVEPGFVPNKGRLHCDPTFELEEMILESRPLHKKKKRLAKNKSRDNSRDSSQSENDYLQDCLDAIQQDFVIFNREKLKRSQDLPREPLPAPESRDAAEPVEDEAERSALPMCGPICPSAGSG
Outline: as §1

T1 sequence (Q8TDX7 whole entry): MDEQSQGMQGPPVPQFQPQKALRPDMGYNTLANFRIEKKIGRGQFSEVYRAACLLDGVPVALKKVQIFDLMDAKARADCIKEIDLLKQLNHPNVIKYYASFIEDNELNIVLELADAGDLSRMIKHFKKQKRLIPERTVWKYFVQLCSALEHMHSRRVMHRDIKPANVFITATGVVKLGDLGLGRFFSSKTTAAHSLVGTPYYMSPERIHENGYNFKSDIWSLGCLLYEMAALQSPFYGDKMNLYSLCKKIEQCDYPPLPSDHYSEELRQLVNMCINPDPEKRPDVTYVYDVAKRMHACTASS

C#Cc1cccc(Nc2ncnc3cc(OC)c(OCCCN4CCOCC4)cc23)c1 [NRC-2694, N-(3-ethylnylphenyl)-7-methoxy-6-[3-(4-morpholinyl)propoxy]-4-quinazolinamine] was tested, and the “% Ctrl @ 10000 nM” value [1] was 78 % Ctrl, the “% Ctrl @ 10000 nM” value [2] was 3.7 % Ctrl and the “% Ctrl @ 10000 nM” value [3] was 83 % Ctrl. For the same compound, the “% Ctrl @ 10000 nM” value [4] was 33 % Ctrl, the “% Ctrl @ 10000 nM” value [5] was 100 % Ctrl and the “% Ctrl @ 10000 nM” value [6] was 9.6 % Ctrl. For the same compound, the “% Ctrl @ 10000 nM” value [7] was 9.4 % Ctrl, the “% Ctrl @ 10000 nM” value [8] was 36 % Ctrl and the “% Ctrl @ 10000 nM” value [9] was 48 % Ctrl. The “% Ctrl @ 10000 nM” value [10] was 100 % Ctrl, the “% Ctrl @ 10000 nM” value [11] was 74 % Ctrl and the “% Ctrl @ 10000 nM” value [12] was 80 % Ctrl. The “% Ctrl @ 10000 nM” value [13] was 78 % Ctrl, the “% Ctrl @ 10000 nM” value [14] was 44 % Ctrl and the “% Ctrl @ 10000 nM” value [15] was 100 % Ctrl. The “% Ctrl @ 10000 nM” value [16] was 39 % Ctrl, the “% Ctrl @ 10000 nM” value [17] was 14 % Ctrl and the “% Ctrl @ 10000 nM” value [18] was 81 % Ctrl. The “% Ctrl @ 10000 nM” value [19] was 65 % Ctrl, the “% Ctrl @ 10000 nM” value [20] was 47 % Ctrl and the “% Ctrl @ 10000 nM” value [21] was 17 % Ctrl. The “% Ctrl @ 10000 nM” value [22] was 41 % Ctrl and the “% Ctrl @ 10000 nM” value [23] was 100 % Ctrl.
